Laboratory results published in ChEMBL document CHEMBL3817791, “Discovery of 4-(4-aminopyrazolo[1,5-a][1,3,5]triazin-8-yl)benzamides as novel, highly potent and selective, orally bioavailable inhibitors of Tyrosine Threonine Kinase, TTK” (Bioorg Med Chem Lett, 2016).

What was measured:
[1] = Cmax in CD-1 nude mouse at 100 mg/ml, po; format: ADME, organism-based; parameters: dose 100 mg/ml, route oral; settings: in vivo
[2] = Half life in human microsomes; format: ADME, Microsome
[3] = Protein binding in mouse plasma; format: ADME, cell-free; settings: read-out: PPB (converted)
[4] = Half life in rat microsomes; format: ADME, Microsome
[5] = tested on: MDA-MB-231; assay: Antiproliferative activity against human MDA-MB-231 cells; format: functional
[6] = Half life in Sprague-Dawley rat at 1 mg/ml, iv; format: ADME, organism-based; settings: in vivo
[7] = tested on: MDA-MB-468; assay: Antiproliferative activity against human MDA-MB-468 cells; format: functional
[8] = Cmax in CD-1 nude mouse at 70 mg/ml, po; format: ADME, organism-based; parameters: dose 70 mg/ml, route oral; settings: in vivo
[9] = Clearance in Sprague-Dawley rat at 1 mg/ml, iv; format: ADME, organism-based; settings: in vivo
[10] = AUC (0 to last) in CD-1 nude mouse at 25 mg/ml, po; format: ADME, organism-based; parameters: dose 25 mg/ml, time 0 - last, route oral; settings: in vivo
[11] = Cmax in Sprague-Dawley rat at 1 mg/ml, iv; format: ADME, organism-based; parameters: dose 1 mg/ml, route intravenous; settings: in vivo
[12] = molecular target: Rho-associated protein kinase 2 (Homo sapiens) (UniProt O75116); assay: Inhibition of recombinant human N-terminal His6-tagged ROCK2 (11 to 552 residues) expressed in baculovirus infected Sf21 cells at 1 uM by radiometric assay relative to control
[13] = molecular target: Aurora kinase B/Inner centromere protein (Homo sapiens, UniProt Q96GD4); assay: Inhibition of recombinant human His-tagged Aurora B/full length recombinant human N-terminal GST-tagged INCENP (821-end residues) expressed in baculovirus infected Sf21 cells by radiometric assay
[14] = Half life in Sprague-Dawley rat at 5 mg/ml, iv; format: ADME, organism-based; settings: in vivo
[15] = AUC (0 to last) in CD-1 nude mouse at 100 mg/ml, po; format: ADME, organism-based; parameters: dose 100 mg/ml, route oral, time 0 - last; settings: in vivo
[16] = Oral bioavailability in Sprague-Dawley rat; format: ADME, organism-based; settings: in vivo
[17] = molecular target: T1, Dual specificity protein kinase TTK (Homo sapiens, UniProt P33981); assay: Competitive inhibition of TTK (unknown origin) by double reciprocal plot analysis in presence of ATP
T1 sequence (P33981 whole entry): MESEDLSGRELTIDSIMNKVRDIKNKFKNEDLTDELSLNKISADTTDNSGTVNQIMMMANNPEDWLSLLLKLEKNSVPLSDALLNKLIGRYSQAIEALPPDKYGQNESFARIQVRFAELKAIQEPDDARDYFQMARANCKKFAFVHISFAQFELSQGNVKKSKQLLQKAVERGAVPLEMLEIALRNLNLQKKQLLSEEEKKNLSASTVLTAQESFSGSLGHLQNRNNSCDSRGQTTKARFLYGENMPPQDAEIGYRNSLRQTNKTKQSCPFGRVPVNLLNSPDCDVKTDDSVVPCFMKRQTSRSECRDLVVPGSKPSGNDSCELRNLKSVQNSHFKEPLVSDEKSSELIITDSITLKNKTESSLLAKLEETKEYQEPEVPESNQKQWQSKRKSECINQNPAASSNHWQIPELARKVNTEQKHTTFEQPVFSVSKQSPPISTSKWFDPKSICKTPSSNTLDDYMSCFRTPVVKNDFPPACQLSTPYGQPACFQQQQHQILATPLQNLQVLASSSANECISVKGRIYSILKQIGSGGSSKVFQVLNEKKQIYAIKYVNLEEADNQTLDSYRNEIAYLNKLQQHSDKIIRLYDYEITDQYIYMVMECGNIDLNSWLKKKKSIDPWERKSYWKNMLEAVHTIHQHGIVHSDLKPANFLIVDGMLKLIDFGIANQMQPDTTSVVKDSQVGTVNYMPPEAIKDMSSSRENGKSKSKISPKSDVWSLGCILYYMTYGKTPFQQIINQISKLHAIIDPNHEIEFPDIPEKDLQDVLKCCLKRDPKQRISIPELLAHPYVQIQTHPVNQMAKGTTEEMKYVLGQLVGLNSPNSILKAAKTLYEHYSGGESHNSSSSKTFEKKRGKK

[18] = molecular target: MAP kinase-activated protein kinase 2 (Homo sapiens) (UniProt P49137); assay: Inhibition of recombinant human N-terminal GST-tagged MAPKAPK2 (46 to 400 residues) expressed in Escherichia coli at 1 uM by radiometric assay relative to control
[19] = Volume of distribution at steady state in Sprague-Dawley rat at 1 mg/ml, iv; format: ADME, organism-based; settings: in vivo, read-out: Vdss
[20] = Cmax in CD-1 nude mouse at 10 mg/ml, po; format: ADME, organism-based; parameters: dose 10 mg/ml, route oral; settings: in vivo
[21] = Cmax in Sprague-Dawley rat at 5 mg/ml, iv; format: ADME, organism-based; parameters: dose 5 mg/ml, route intravenous; settings: in vivo
[22] = molecular target: Cytochrome P450 3A4 (Homo sapiens, UniProt P08684); assay: Inhibition of CYP3A4 (unknown origin); format: ADME
[23] = AUC (0 to last) in CD-1 nude mouse at 70 mg/ml, po; format: ADME, organism-based; parameters: dose 70 mg/ml, time 0 - last, route oral; settings: in vivo
[24] = AUC (0 to infinity) in Sprague-Dawley rat at 5 mg/ml, iv; format: ADME, organism-based; parameters: dose 5 mg/ml, route intravenous, time infinity; settings: in vivo
[25] = Antiproliferative activity against human HCT116 cells; format: functional; settings: HCT-116
[26] = Protein binding in human plasma; format: ADME, cell-free; settings: read-out: PPB (converted)
[27] = AUC (0 to infinity) in Sprague-Dawley rat at 1 mg/ml, iv; format: ADME, organism-based; parameters: dose 1 mg/ml, time infinity, route intravenous; settings: in vivo

Aurora kinase B/Inner centromere protein, sequence (Q96GD4 whole entry): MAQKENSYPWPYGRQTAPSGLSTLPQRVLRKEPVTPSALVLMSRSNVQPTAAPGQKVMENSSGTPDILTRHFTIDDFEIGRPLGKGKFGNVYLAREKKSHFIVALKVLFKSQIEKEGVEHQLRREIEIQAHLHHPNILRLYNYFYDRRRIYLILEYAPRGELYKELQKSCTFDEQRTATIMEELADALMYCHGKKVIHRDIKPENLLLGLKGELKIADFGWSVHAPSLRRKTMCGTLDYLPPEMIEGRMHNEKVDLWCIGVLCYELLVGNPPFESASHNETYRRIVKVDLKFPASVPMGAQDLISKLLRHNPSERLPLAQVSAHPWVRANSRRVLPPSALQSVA
Aurora kinase B/Inner centromere protein, sequence (Q9NQS7 whole entry, further chain): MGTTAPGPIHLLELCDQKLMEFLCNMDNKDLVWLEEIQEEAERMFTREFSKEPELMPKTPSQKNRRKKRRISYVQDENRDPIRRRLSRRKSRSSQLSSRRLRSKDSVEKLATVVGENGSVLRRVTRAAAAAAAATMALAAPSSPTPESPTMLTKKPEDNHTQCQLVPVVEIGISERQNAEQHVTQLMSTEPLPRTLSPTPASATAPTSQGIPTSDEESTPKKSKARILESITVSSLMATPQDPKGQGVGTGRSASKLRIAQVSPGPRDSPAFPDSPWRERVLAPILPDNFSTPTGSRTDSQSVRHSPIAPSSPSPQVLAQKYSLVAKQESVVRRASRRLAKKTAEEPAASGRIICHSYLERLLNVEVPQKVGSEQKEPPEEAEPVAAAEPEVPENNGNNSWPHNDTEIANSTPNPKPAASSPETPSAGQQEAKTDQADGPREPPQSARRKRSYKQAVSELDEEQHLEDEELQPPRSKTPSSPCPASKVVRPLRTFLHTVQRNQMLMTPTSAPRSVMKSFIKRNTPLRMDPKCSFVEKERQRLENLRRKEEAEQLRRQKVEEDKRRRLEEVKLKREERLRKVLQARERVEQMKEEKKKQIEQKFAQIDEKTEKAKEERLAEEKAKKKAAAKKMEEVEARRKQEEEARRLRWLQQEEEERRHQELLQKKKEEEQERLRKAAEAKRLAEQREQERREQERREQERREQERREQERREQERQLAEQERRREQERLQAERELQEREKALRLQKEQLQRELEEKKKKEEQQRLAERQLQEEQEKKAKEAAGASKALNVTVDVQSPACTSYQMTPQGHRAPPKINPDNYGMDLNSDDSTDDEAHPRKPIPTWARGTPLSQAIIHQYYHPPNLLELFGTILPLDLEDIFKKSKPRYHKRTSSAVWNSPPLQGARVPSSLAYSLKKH
Cytochrome P450 3A4, sequence (P08684 whole entry): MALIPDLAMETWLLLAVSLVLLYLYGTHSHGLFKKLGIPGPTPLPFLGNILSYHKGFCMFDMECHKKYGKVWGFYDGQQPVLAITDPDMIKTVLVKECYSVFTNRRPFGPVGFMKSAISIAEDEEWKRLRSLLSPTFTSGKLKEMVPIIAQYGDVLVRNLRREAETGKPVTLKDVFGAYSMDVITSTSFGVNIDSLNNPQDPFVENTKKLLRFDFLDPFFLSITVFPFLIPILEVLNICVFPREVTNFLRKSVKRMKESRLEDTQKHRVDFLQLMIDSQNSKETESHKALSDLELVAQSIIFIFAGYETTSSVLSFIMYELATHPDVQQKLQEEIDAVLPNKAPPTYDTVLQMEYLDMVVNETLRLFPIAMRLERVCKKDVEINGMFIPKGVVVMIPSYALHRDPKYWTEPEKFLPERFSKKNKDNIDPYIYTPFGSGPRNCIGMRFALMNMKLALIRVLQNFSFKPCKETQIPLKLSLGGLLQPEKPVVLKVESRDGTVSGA
MAP kinase-activated protein kinase 2 (Homo sapiens), sequence (P49137 whole entry, looked up, the tested form may be a part): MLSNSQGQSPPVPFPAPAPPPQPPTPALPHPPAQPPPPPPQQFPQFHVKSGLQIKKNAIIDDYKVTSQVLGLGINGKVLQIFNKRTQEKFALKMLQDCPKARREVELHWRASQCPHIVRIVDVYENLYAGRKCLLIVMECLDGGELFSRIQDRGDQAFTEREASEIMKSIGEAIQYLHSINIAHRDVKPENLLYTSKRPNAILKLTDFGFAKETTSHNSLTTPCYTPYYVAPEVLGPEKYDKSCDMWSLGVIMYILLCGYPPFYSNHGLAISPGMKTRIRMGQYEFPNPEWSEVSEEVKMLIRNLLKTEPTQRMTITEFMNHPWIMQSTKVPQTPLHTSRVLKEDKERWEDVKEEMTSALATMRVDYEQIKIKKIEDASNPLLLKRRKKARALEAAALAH
Rho-associated protein kinase 2 (Homo sapiens), sequence (O75116 whole entry, looked up, the tested form may be a part): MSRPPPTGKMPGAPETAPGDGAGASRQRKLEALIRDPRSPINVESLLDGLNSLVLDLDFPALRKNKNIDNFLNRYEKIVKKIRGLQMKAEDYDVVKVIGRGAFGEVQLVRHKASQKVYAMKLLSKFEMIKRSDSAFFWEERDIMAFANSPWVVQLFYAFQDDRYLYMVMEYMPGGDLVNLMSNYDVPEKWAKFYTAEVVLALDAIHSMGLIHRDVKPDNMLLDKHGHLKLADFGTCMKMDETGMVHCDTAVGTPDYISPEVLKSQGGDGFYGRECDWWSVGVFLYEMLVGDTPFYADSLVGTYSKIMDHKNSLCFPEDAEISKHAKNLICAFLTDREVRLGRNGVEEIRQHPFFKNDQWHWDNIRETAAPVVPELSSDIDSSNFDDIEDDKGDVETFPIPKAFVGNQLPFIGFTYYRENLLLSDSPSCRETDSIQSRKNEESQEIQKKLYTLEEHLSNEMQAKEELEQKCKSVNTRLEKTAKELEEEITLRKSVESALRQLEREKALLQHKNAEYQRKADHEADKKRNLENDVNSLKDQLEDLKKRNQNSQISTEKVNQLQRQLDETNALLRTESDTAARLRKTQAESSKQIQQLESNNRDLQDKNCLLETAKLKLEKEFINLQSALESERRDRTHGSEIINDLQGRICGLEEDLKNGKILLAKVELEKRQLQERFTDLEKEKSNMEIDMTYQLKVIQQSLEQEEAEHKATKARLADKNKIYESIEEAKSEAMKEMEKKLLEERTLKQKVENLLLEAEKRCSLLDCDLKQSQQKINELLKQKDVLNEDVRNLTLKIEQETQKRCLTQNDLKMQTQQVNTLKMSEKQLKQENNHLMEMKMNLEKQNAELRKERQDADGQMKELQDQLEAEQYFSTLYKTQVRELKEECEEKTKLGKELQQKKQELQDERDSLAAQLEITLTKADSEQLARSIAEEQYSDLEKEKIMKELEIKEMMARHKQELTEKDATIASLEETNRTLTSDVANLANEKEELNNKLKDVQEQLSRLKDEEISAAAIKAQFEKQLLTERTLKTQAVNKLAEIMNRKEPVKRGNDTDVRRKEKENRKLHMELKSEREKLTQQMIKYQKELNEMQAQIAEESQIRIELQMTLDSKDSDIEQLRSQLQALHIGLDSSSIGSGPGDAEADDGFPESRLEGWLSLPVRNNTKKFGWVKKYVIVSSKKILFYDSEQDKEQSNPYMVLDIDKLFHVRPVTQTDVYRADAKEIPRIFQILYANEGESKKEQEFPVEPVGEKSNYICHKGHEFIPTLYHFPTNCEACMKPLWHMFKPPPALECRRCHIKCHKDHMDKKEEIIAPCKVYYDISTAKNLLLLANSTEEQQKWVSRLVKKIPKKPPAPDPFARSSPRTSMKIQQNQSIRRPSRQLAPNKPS

Cc1cc(-c2cnn3c(NCC4CCOCC4)nc(Oc4ccccc4)nc23)ccc1C(=O)NC1CC1
Cmax [1]: 2.9 µg/mL
half-life [2]: > 1 h
fraction unbound [3]: 0.016
half-life [4]: > 1 h
GI50 [5]: 0.032 µM
half-life [6]: 1.53 h
GI50 [7]: 0.16 µM
Cmax [8]: 7.7 µg/mL
clearance [9]: 1.14 L/h/kg
AUC(0-t) [10]: 19.1 µg·h/mL
Cmax [11]: 0.411 µg/mL
inhibition [12]: 0%
IC50 [13]: > 50 µM
half-life [14]: 1.7 h
AUC(0-t) [15]: 25 µg·h/mL
bioavailability [16]: 97%
Ki [17]: 0.00077 µM
inhibition [18]: -8%
Vd [19]: 2.8 L
Cmax [20]: 0.89 µg/mL
Cmax [21]: 0.841 µg/mL
IC50 [22]: 0.8 µM
AUC(0-t) [23]: 53 µg·h/mL
AUC(0-inf) [24]: 4.23 µg·h/mL
GI50 [25]: 0.013 µM
fraction unbound [26]: 0.028
AUC(0-inf) [27]: 0.871 µg·h/mL
